From article PMC2649378 (European Journal of Pharmacology, 2008) come the findings set out here.

Structures are written as SMILES. “And” between values parts separate entries of the source, which are not always exact repeats. Equal values may be shown once.

One assay deals with T1, 5-HT3A receptors (Mus musculus, UniProt P23979).
T1 construct: expressed in transfected cells; host or cells: Xenopus laevis oocytes injected with cRNA (pGEMHE)
T1 sequence (P23979 24-489): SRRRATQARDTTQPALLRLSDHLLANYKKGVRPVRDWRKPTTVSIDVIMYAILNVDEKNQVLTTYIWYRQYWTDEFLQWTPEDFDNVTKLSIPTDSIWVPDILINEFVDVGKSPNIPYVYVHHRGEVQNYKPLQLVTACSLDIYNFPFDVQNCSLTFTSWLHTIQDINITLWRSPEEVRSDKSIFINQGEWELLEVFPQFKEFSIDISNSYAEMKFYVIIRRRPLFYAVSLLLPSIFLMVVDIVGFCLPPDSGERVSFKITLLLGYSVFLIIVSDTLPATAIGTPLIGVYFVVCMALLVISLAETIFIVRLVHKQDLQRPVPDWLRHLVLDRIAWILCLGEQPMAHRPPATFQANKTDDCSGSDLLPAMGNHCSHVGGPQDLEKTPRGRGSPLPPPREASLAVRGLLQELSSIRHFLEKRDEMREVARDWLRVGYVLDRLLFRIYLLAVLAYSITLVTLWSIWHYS
Put plainly: Agonist-induced currents in Xenopus oocytes expressing 5-HT3A receptors (OpusXpress electrophysiology). It is filed as cell-based. Here is the method: (§1) Harvested stage V–VI Xenopus oocytes were washed in six changes of ND96 (96 mM NaCl, 2 mM KCl, 1 mM MgCl2, 1.8 mM CaCl2, 5 mM HEPES, pH 7.5), de-folliculated in 1.5 mg ml^− 1 collagenase Type 1A for approximately 2 h. Enzyme treatment was terminated by washing in six changes of ND96 and oocytes were stored in ND96 containing 2.5 mM sodium pyruvate, […] and 0.7 mM theophylline.
(§2) Mouse 5-HT3A (accession number: AY605711) or 5-HT3B (accession number: NM_020274, kindly provided by Ewen Kirkness) subunit cDNAs were cloned into pGEMHE for oocyte expression ([Liman et al., 1992]). cRNA was in vitro transcribed from linearised (NheI) plasmid cDNA template using the mMessage mMachine T7 kit (Ambion, Austin, Texas, USA). Stage V and VI oocytes were injected with 50 ng–100 ng cRNA, and recorded from 1–4 days post-injection. For expression in HEK 293 cells, 5-HT3 receptor subunit cDNAs were cloned into pcDNA3.1 (Invitrogen Ltd., Paisley, UK.). Mutagenesis reactions were performed using the Kunkel method and confirmed by DNA sequencing. Cells were transfected using calcium phosphate precipitation at 80–90% confluency ([Jordan et al., 1996]). Following transfection cells were incubated for 3–4 days before assay.
(§3) Agonist-induced currents were recorded at 22–25 °C from individual oocytes using the OpusXpress system (Molecular Devices Axon Instruments, Union City, CA). […] The holding potential was − 60 mV.

The target in assay [1] is T2, 5-HT3AB receptors (Mus musculus, UniProt P23979+Q9JHJ5).
T2 construct: expressed in transfected cells; host or cells: Xenopus laevis oocytes injected with cRNA (pGEMHE)
T2 sequence (P23979 24-489): T1 sequence (P23979 24-489)
T2 sequence (Q9JHJ5 22-437): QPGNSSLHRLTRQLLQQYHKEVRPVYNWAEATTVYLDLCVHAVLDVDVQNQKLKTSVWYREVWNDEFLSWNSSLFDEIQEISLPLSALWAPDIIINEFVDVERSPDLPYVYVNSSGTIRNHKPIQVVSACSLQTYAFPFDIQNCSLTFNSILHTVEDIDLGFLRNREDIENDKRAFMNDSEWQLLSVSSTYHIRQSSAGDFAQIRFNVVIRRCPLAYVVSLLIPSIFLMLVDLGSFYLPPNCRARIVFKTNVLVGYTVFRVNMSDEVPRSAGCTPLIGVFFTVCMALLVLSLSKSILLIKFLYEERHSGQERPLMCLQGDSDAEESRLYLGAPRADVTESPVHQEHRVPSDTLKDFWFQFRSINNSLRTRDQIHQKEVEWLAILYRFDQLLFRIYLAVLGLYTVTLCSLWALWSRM
Put plainly: Agonist-induced currents in Xenopus oocytes expressing 5-HT3AB receptors (OpusXpress electrophysiology). It is filed as cell-based. The protocol: as §1, §2, §3

Assay [2] concerns the target T2, 5-HT3AB receptors. Put plainly: [3H]granisetron binding to membranes of transfected HEK 293 cells, 5-HT3AB receptors. Here is the method:
as §2
This was undertaken in HEK 293 cells which provide an established and robust method of studying ligand binding. Methods were as previously described ([Lummis et al., 1993]), with minor modifications. Briefly, transfected HEK 293 cells were washed twice with phosphate buffered saline (PBS) at room temperature and scraped into 1 ml of ice-cold HEPES buffer (10 mM, pH 7.4) containing the following proteinase inhibitors (PI): 1 mM EDTA, 50 μg ml^− 1 soybean trypsin inhibitor, 50 μg/ml bacitracin and 0.1 mM phenylmethylsulphonyl fluoride. […] Competition binding was performed using ligand concentrations from 0.1 μM–10 mM. Reactions were incubated for at least 1 h at 4 °C and terminated by vacuum filtration using a Brandel cell harvester onto GF/B filters pre-soaked in 0.3% polyethyleneimine. Radioactivity was determined by scintillation counting using a Beckman LS6000SC (Fullerton, California, USA). Competition binding data were analyzed by iterative curve fitting (GraphPad Prism v3.02, GraphPad Software, San Diego, California, USA), according to the equation: y=Bmin+Bmax−Bmin/1+10^[L]−logIC50 where Bmin is the lowest total binding, Bmax is the maximum specific binding at equilibrium, [L] is the concentration of competing ligand and IC50 is the concentration of competing ligand that blocks half of the specific bound radioligand. Ki values were estimated from IC50 values using the Cheng–Prusoff equation: Ki=IC50/1+[L]/Kd
where Ki is the equilibrium dissociation constant for binding of the unlabeled antagonist, [L] is the concentration of radioligand and Kd is the equilibrium dissociation constant of the radioligand.

Usually EC50 stands for the midpoint of the concentration-response curve. Low readings indicate higher potency in that assay, high ones lower potency in that assay. In general, Ki refers to a measure of affinity in units of concentration, obtained from inhibition or displacement. As for `NCCc1c[nH]c2ccc(F)cc12` [5-FT, 5-fluorotryptamine], the agonist character entry at 5-HT3A receptors (5-HT3A receptors) and on 5-HT3AB receptors [1] (5-HT3AB receptors) was “partial agonist” in each case. Further, the “nH (Hill slope)” value is 2.4 and 2.4 ± 0.5 on 5-HT3A receptors (5-HT3A receptors in Xenopus oocytes); 1.4 and 1.4 ± 0.3 at 5-HT3AB receptors [1] (5-HT3AB receptors in Xenopus oocytes). The “Relative efficacy Rmax = Imax drug / Imax 5-HT” value at 5-HT3A receptors (5-HT3A receptors in Xenopus oocytes, maximal concentration) was 0.64 and 0.64 ± 0.03; on 5-HT3AB receptors [1] (5-HT3AB receptors in Xenopus oocytes, maximal concentration) it was 0.45 and 0.45 ± 0.04. Besides, the 50% effective concentration (EC50) at 5-HT3A receptors (EC50, 5-HT3A receptors in Xenopus oocytes, holding potential -60 mV) amounted to 16 µM; at 5-HT3AB receptors [1] (EC50, 5-HT3AB receptors in Xenopus oocytes, holding potential -60 mV), 27 µM. At 5-HT3A receptors (discussion, stated for 5-HT3 receptors (5-HT3A and 5-HT3AB) without distinction), the “Rmax, approximate summary value” is given as ~0.5. Moreover, the affinity on 5-HT3AB receptors [2], expressed as Ki, was 1.8 ± 0.4 µM.
